# Where no end group is shown, it is not given here.
# Tests used:
# CIA rats = assay: CIA rat model: inflammation score AUC and peripheral blood T-cell subtypes (Example 3); format: in vivo; settings: 0.2 mmol
# Experimental: Collagen-induced arthritis (CIA) model was established by intradermal injection of the emulsion formulated using type II bovine collagen (CII) together with incomplete Freund's adjuvant (IFA) into the tail head of a female Lewis rat. After the model establishment, the morphological changes of rats' four paws were examined every day. […] Except for the model group, the dosage of polypeptide was all set as 0.2 mmol. A control group was also set up, in which the drug was injected into the tail vein once every other day for […]. The area under the curve (AUC) of the inflammation score was used for the efficacy analysis from the day the rats were enrolled, once every other day, until the end of administration.
# [1] = test system: immune system of healthy rats; assay: Immune indicators of SD rats after one month of administration (Example 4); format: in vivo, rat; settings: once a day for 4 weeks, end of administration
# Experimental: SD rats were used to investigate the effects of the SE-DR affinity peptides on the immune indicators of the rats after continuous administration for one month. […] At the end of administration, analysis was conducted on the serum anti-FNS007 antibodies, different types of serum immunoglobulins, the serum complement, the peripheral blood T lymphocyte and the serum cytokines.
# [2] = test system: immune system of healthy monkeys; assay: Immune indicators of cynomolgus monkeys after one month of administration (Example 5); format: in vivo, cynomolgus monkey; settings: once a day for 4 weeks, end of administration
# Source text: Cynomolgus monkeys were used to investigate the effects of the SE-DR affinity peptide on the immune indicators of cynomolgus monkeys after continuous administration for one month. […] At the end of administration, the immune indicators, including the serum anti-FNS007 antibodies, the immunoglobulins of different serotypes, the serum complement, the peripheral blood T lymphocyte and the serum cytokines, were observed.
# [3] = peripheral blood, […] after end of administration, flow cytometry
sequence,measurement,setting,value
FKGEQAGAGE [APL2],Inflammation score and area under the time curve (AUC),"CIA rats; female Lewis CIA rats, tail vein once every other day for 15 days",52.37 ± 33.69
same,Th1 (%),CIA rats; [3],0.16 ± 0.09 %
same,Th2 (%),CIA rats; [3],4.53 ± 0.50 %
same,Th17 (%),CIA rats; [3],0.87 ± 0.09 %
same,Treg (%),CIA rats; [3],5.52 ± 0.68 %
same,CD3%,[1],37.4 ± 10.52%
same,CD4%,[1],19.77 ± 6.05%
same,CD8%,[1],17.29 ± 7.09%
same,IFN-γ,[1],2.47 ± 0.36 pg/mL
same,IL-2,[1],3.69 ± 3.03 pg/mL
same,IL-4,[1],1.96 ± 1.26 pg/mL
same,TNF-α,[1],5.13 ± 1.83 pg/mL
same,CD3%,[2],63.37 ± 16.35%
same,CD4%,[2],27.33 ± 6.66%
same,CD8%,[2],21.74 ± 4.37%
same,IFN-γ,[2],5.09 ± 0.52 pg/mL
same,IL-2,[2],4.62 ± 0.86 pg/mL
same,IL-4,[2],2.12 ± 0.42 pg/mL
same,TNF-α,[2],2.42 ± 0.51 pg/mL

# Reference: US20250074946A1, “USE OF SE-DR AFFINITY PEPTIDE IN PREPARING DRUG FOR TREATING RHEUMATIC DISEASE” (HEBEI FITNESS BIOTECHNOLOGY CO., LTD., priority 2021, published 2025)
